Consider 10 molecules from EP0587374A2, “Sulfated sterol glycosides and their use against viral infections” (VIROSTAT (NA) NV, priority 1992, dated 1994).

SMILES strings stand for the structures. Like-named read-outs stand apart in the source and are kept apart here.

In series [1] the test system is Peripheral blood lymphocytes. Briefly: In vitro cytotoxicity, Trypan Blue exclusion after 3 days of culture. The following applies: 3 days, means of 4 counts. The procedure: Peripheral blood lymphocytes were prepared from normal blood. Cells were cultured for 3 days in complete medium [(RPMI, a commercially available so-called standard salt solution) + 10 % foetal calf serum (FCS) + […]] in the presence/absence of phytohemagglutinin (PHA). Duplicate wells were set up. Incubation was at 37°C and 5 % CO₂.
On the third day, cell viabilities were determined using the Trypan Blue exclusion test.
Those products which were water soluble, were made up at 8 mg/mℓ stocks in sterile distilled water and diluted 1:10 in RPMI medium and again diluted 1:10 directly in the wells containing the cells in complete medium. The final concentrations were thus 80 µg/mℓ. For the lower dilutions, the 8 mg/mℓ stock was diluted 1:2 or 1:4 or 1:8 in water before being diluted in the RPMI medium.
For those products which were DMSO-soluble, the stocks were made'up at 8 mg/mℓ in 100 % DMSO. This stock was diluted 1:10 in 100 % FCS and diluted 1:10 directly in the wells containing the cells in RPMI medium only. The final concentrations were thus 10 % FCS and 1 % DMSO. For the lower dilutions, the 8 mg/mℓ stock was diluted 1:2 or 1:4 or 1:8 with DMSO before the FCS dilution step.
This stock was diluted in water to yield a working stock of 2 mg/mℓ. The 2 mg/ml stock was diluted 1:20 or 1:10 or 1:5 or 1:2.5 in water and again 1:10 in the wells to give the 10, 20, 40 or 80 µg/mℓ final concentrations respectively.

Where [2] appears, read: test concentration 10 µg/mℓ, duration 6 days.
[3] abbreviates: test concentration 25 µg/mℓ, duration 6 days.
Setting [4] is: test concentration 50 µg/mℓ, duration 6 days.

For `CC[C@H](CC[C@@H](C)[C@H]1CC[C@H]2[C@@H]3CC=C4C[C@@H](O[C@@H]5O[C@H](CO)[C@@H](O)[C@H](O)[C@H]5O)CC[C@]4(C)[C@H]3CC[C@]12C)C(C)C` [BSSG, β-Sitosteryl β-D-glucoside, reference compound], the “% INHIBITION OF P24 PROTEIN PRODUCTION” value was 0% with HIV-1 (setting [2]) and “no significant inhibition” in the series on HIV-1 (test concentration 10 µg/mℓ, duration 6 days, listed as LL4).

For `CC(C)CCC[C@@H](C)[C@H]1CC[C@H]2[C@@H]3CC=C4C[C@@H](OS(=O)(=O)O)CC[C@]4(C)[C@H]3CC[C@]12C` [CHO-SO₄⁻, Cholesteryl sulphate, reference compound], the “% INHIBITION OF P24 PROTEIN PRODUCTION” value in the series with HIV-1 (setting [2]) was 0%; with HIV-1 (test concentration 10 µg/mℓ, duration 6 days, listed as LL6), “no significant inhibition”.

Regarding `CC[C@H](CC[C@@H](C)[C@H]1CC[C@H]2[C@@H]3CC=C4C[C@@H](OS(=O)(=O)O)CC[C@]4(C)[C@H]3CC[C@]12C)C(C)C` [BSS-SO₄⁻, β-Sitosteryl sulphate, reference compound], the “% INHIBITION OF P24 PROTEIN PRODUCTION” value is 0% in the series with HIV-1 (setting [2]) and “no significant inhibition” in the series with HIV-1 (test concentration 10 µg/mℓ, duration 6 days, listed as LL1).

In the case of `Cc1cn([C@H]2C[C@H](N=[N+]=[N-])[C@@H](CO)O2)c(=O)[nH]c1=O` [AZT, reference compound], the “inhibition of P24 protein production” value in the series on HIV-1 (concentration 10 ng/mℓ, test of Table 3) came out at 100%.

For `CCCCCCCCO[C@@H]1O[C@H](COS(=O)(=O)O)[C@@H](OS(=O)(=O)O)[C@H](OS(=O)(=O)O)[C@H]1OS(=O)(=O)O` [n-OCTYL GLUCOSIDE TETRA-SULPHATE, reference compound], the “% INHIBITION OF P24 PROTEIN PRODUCTION” value with HIV-1 (setting [3]) and with HIV-1 (setting [4]) was 0% throughout.

Consider `CC(C)CCC[C@@H](C)[C@H]1CC[C@H]2[C@@H]3CC=C4C[C@@H](O)CC[C@]4(C)[C@H]3CC[C@]12C` [CHO, Cholesterol, reference compound], for which the “% INHIBITION OF P24 PROTEIN PRODUCTION” value is 3% in the series with HIV-1 (setting [2]) and “no significant inhibition” in the series on HIV-1 (test concentration 10 µg/mℓ, duration 6 days, listed as LL5).

For the molecule `CC[C@H](CC[C@@H](C)[C@H]1CC[C@H]2[C@@H]3CC=C4C[C@@H](O)CC[C@]4(C)[C@H]3CC[C@]12C)C(C)C` [BSS, β-Sitosterol, reference compound], the “% INHIBITION OF P24 PROTEIN PRODUCTION” value in the series on HIV-1 (setting [2]) is reported as 0%; in the series on HIV-1 (test concentration 10 µg/mℓ, duration 6 days, listed as LL2) it was “no significant inhibition”. The “% Viability” value in series [1] (Cells + PHA + 1.25 µg/mℓ) was found to be 89%; in series [1] (Cells + PHA + 2.5 µg/mℓ), 81%; in series [1] (Cells + PHA + 5 µg/mℓ), 92%; in series [1] (Cells + PHA + 10 µg/mℓ) it was 82%.

As for `CCCCCCCCCCCCOS(=O)(=O)[O-].[Na+]` [SODIUM n-DODECYL SULPHATE, reference compound], the “% INHIBITION OF P24 PROTEIN PRODUCTION” value in the series on HIV-1 (setting [3]) is recorded as 0%; in the series on HIV-1 (setting [4]), 45%.

As to `CC(C)CCC[C@@H](C)[C@H]1CC[C@H]2[C@@H]3CC=C4C[C@@H](O[C@@H]5O[C@H](COS(=O)(=O)[O-])[C@@H](OS(=O)(=O)[O-])[C@H](OS(=O)(=O)[O-])[C@H]5OS(=O)(=O)[O-])CC[C@]4(C)[C@H]3CC[C@]12C.[Na+].[Na+].[Na+].[Na+]` [CHOG-(SO₄⁻)₄, Cholesteryl β-D-glucoside tetra-sulphate], the “% INHIBITION OF P24 PROTEIN PRODUCTION” value in the series on HIV-1 (test concentration 12.5 µg/mℓ, duration 4 days) turned out to be 19%; in the series with HIV-1 (test concentration 25 µg/mℓ, duration 4 days) it was 18%; in the series with HIV-1 (test concentration 50 µg/mℓ, duration 4 days) it was 49%; with HIV-1 (test concentration 100 µg/mℓ, duration 4 days), 86%.

With `C[C@@H]1CC[C@@]2(OC1)O[C@H]1C[C@H]3[C@@H]4CC=C5C[C@@H](O[C@@H]6O[C@H](COS(=O)(=O)[O-])[C@@H](OS(=O)(=O)[O-])[C@H](OS(=O)(=O)[O-])[C@H]6OS(=O)(=O)[O-])CC[C@]5(C)[C@H]4CC[C@]3(C)[C@H]1[C@@H]2C.[Na+].[Na+].[Na+].[Na+]` [DG-(SO₄⁻)₄, Diosgenyl β-D-glucoside tetra-sulphate], the “anti-HIV-1 effect (in words)” value in the series with HIV-1 (in terms of P24 protein production, Tables 1-3) was “marked anti-HIV-1 effects”. The “% INHIBITION OF P24 PROTEIN PRODUCTION” value stood at 60% in the series with HIV-1 (setting [3]) and 100% in the series with HIV-1 (setting [4]).
